# Laboratory results taken from patent publication US20220380341A1, “INHIBITORS OF HIV-1 NEF FOR THE TREATMENT OF HIV DISEASE” (priority 2018, published 2022).
# Like-named read-outs stand apart in the source and are kept apart here.
# What was measured:
# TZM-bl cell line = assay type: cell-based; conditions: human, 1 μM
# Method in brief: (§1)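 Nef-dependent infectivity in TZM-bl cells: HIV-1NL4-3 infection with 1 μM compound, luciferase read at 48 h, normalized against DMSO wild-type and Nef-defective controls. Compound cytotoxicity in uninfected cells measured by Cell Titer Blue.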
# HIV-1 NL4-3 = assay: HIV-1 replication in normal donor PBMCs (p24 Gag AlphaLISA); assay type: cell-based; conditions: Table 1, 4 days; for IC50: Human immunodeficiency virus 1, NL43, PBMC, 96 h
# Description: FIG. 4. Inhibition of HIV-1 replication by compounds disclosed herein in PBMCs. Donor PBMCs were infected with HIV-1 in the presence of inhibitor concentrations ranging from 1 to 1,000 nM or the DMSO carrier solvent as a negative control (0.1% DMSO final). Replication was assessed by p24 Gag AlphaLISA (Perkin Elmer) […]. Each donor was also infected with Nef-defective HIV-1 to establish the baseline for Nef-dependent enhancement of replication in each culture. Cytotoxicity was assessed in uninfected PBMCs over the same incubation period using the CellTiter-Blue assay (Promega). Data were fit by non-linear regression analysis (GraphPad Prism v.7.04) to determine the IC50 and CC50 values shown.
# The tables also show data for HIV-1 Replication in normal donor peripheral blood mononuclear cells (PBMCs), which is assay is conducted as follows:
# Non-HLA-typed buffy coats (Source: Pittsburgh Central Blood Bank, #E3755) are received and processed within 24 hours of blood donation. PBMCs are isolated via rocking for RBC separation following 1:1 dilution with PBS, followed by Ficoll gradient centrifugation. The lymphocyte fraction is removed and washed several times for a final concentration of ˜150-300×10^6 cells per donor. Cells are activated for 3 days with 1-5 μg/mL PHA (Sigma) and 50 U/mL IL-2. Cells are plated at 750,000 cells/ml and viability is checked at day 3 using the Cell Titer Blue assay (Promega). If cells are >90% viable, then they are infected with HIV-1 NL4-3, wild-type or Δ-Nef mutant (input typically 30-500 pg/mL p24 capsid equivalents) in the presence or absence of Nef inhibitor analogs. IL-2 is included in the media at the time of infection. After 4 days, cells are lysed with 1% Triton X-100 for 1.5 h, checked for viability via Cell Titer Blue, and frozen/stored at −20° C. HIV-1 replication is assessed with a high-sensitivity HIV-1 p24 AlphaLISA assay (Perkin Elmer) in ½-volume 96-well plates, using one-half of the recommended assay volumes for all reagents (including samples). Assays are read on the BioTek Cytation5 instrument; readout is in AlphaUnits and replication in p24 pg/mL is determined using an HIV-1 p24 capsid protein standard included in the Alpha kit.
# HIV-1NL4-3 = assay: HIV-1 infectivity assay in TZM-bl reporter cell line (LTR-luciferase, 48 h); assay type: cell-based; conditions: Human immunodeficiency virus 1, TZM-bl
# Method in brief: as §1
# HIV-1 NefNL4-3 = HIV-1 NefNL4-3 (Human immunodeficiency virus type 1 group M subtype B, UniProt P03406, A33V/T15A/T51N/V11I); assay: Surface plasmon resonance binding to recombinant full-length Nef (NL4-3); conditions: for RU30/RUNef (extent of binding): response units at 30 μM relative to Nef immobilized on the SPR chip; for T, minutes (residence time): 2-step induced fit, T = 1/koff2
# [1] = words (Not active, Borderline) where no bound is given
# [2] = 48 h, Table 1, TZM-bl cells, 1 μM, 48 h, 100% = Nef-defective HIV-1, read-out: HIV-1 Infectivity % Inhibition Norm. to Δ-Nef @ 1 μM
# [3] = Nef NL4-3 Binding, SPR 2-state fitting KD, Table 1, 2-step induced-fit model
# [4] = 1.0 μM, TZM-bl reporter cell line, Table 4, read-out: % Infectivity Inhibition
# [5] = read-out: Nef NL4-3 Binding, SPR 1:1 or 2-site fitting KD2, Table 1, 2-site fit, second component
# [6] = KD, M, Table 4, SPR fit 2-step induced fit, KD = koff/kon × koff2/(koff2 + kon2)
Compound,Percent Viability @ 1 μM (TZM-bl cells) (TZM-bl cell line) [%],HIV Replication PBMC IC50 vs. HIV NL4-3 (HIV-1 NL4-3; [1]),inhibition at 1 µM (HIV-1NL4-3; [2]) [%],"Kd (HIV-1 NefNL4-3; Nef NL4-3 Binding, SPR 1:1 or 2-site fitting KD2, Table 1, 2-site fit, second component) [nM]",Kd (HIV-1 NefNL4-3; [3]) [nM],% Cell Viability (TZM-bl cell line) [%],inhibition at 1 µM (HIV-1NL4-3; [4]) [%],Kd (HIV-1 NefNL4-3) [nM],Kd (HIV-1 NefNL4-3; [5]) [nM],RU30/RUNef (extent of binding) (HIV-1 NefNL4-3),Kd (HIV-1 NefNL4-3; [6]) [nM],"T, minutes (residence time) (HIV-1 NefNL4-3; Table 4)",IC50 (HIV-1 NL4-3; [1]) [nM],IC50 (HIV-1 NL4-3) [nM]
"Oc1c(CCc2ccc(F)cc2)c(-c2cccc(F)c2)nn1-c1nc2ccccc2[nH]1 [Compound I-110, 1-(1H-1,3-benzodiazol-2-yl)-3-(3-fluorophenyl)-4-[2-(4-fluorophenyl)ethyl]-1H-pyrazol-5-ol]",88.4,Not active,84.9,2140,30.2,–,–,–,–,–,–,–,–,–
"Oc1c(CCc2ccc(F)cc2)c(-c2ccc(C(F)(F)F)cn2)nn1-c1nc2ccccc2[nH]1 [Compound I-119, 1-(1H-1,3-benzodiazol-2-yl)-4-[2-(4-fluorophenyl)ethyl]-3-[5-(trifluoromethyl)pyridin-2-yl]-1H-pyrazol-5-ol]",77.1,Not active,80.7,–,–,77.1,80.7,0.0189,6830,7.52E- 03,–,–,–,–
"Oc1c(CC2CCCC2)c(-c2ccc(C(F)(F)F)cc2)nn1-c1nc2ccccc2[nH]1 [Compound I-123, 1-(1H-1,3-benzodiazol-2-yl)-4-(cyclopentylmethyl)-3-[4-(trifluoromethyl)phenyl]-1H-pyrazol-5-ol]",85.3,Not active,96.1,–,0.0936,85.3,96.1,88.8,87800,2.57E- 02,0.0936,3.79E + 05 minutes,–,–
"Oc1c(CCc2ccc(F)cc2)c(C2CCC2)nn1-c1nc2ccccc2[nH]1 [Compound I-129, 1-(1H-1,3-benzodiazol-2-yl)-3-cyclobutyl-4-[2-(4-fluorophenyl)ethyl]-1H-pyrazol-5-ol]",99.3,–,60.9,–,0.0371,99.3,60.9,2.38,16800,1.28E- 02,0.0371,5.19E + 05 minutes,≤ 10,–
"Oc1c(CCc2ccc(F)cc2)c(-c2ccc3c(c2)OC(F)(F)O3)nn1-c1nc2ccccc2[nH]1 [Compound I-145, 1-(1H-1,3-benzodiazol-2-yl)-3-(2,2-difluoro-2H-1,3-benzodioxol-5-yl)-4-[2-(4-fluorophenyl)ethyl]-1H-pyrazol-5-ol]",98.2,Not active,-11.7,–,–,98.2,0,–,–,4.38E- 03,–,–,–,–
"Oc1c(CCc2ccc(F)cc2)c(-c2ccc(C(F)(F)F)cc2)nn1-c1nc2ccc(Cl)cc2[nH]1 [Compound I-161, 1-(6-chloro-1H-1,3-benzodiazol-2-yl)-4-[2-(4-fluorophenyl)ethyl]-3-[4-(trifluoromethyl)phenyl]-1H-pyrazol-5-ol]",89.9,Not active,38.7,–,–,89.9,38.7,–,–,1.44E- 02,–,–,–,–
"Oc1c(CCc2ccc(F)cc2)c(-c2ccc(C(F)(F)F)cn2)nn1-c1nc2cc(F)ccc2[nH]1 [Compound I-167, 1-(5-fluoro-1H-1,3-benzodiazol-2-yl)-4-[2-(4-fluorophenyl)ethyl]-3-[5-(trifluoromethyl)pyridin-2-yl]-1H-pyrazol-5-ol]",81.2,Not active,52.1,–,2.02,81.2,52.1,299,1740,1.11E- 02,2.02,5.05E + 03 minutes,–,–
"CC(C)(C)OC(=O)N1CCC(c2nn(-c3nc4ccccc4[nH]3)c(O)c2CCc2ccc(F)cc2)CC1 [Compound I-202, tert-butyl 4-[1-(1H-1,3-benzodiazol-2-yl)-4-[2-(4-fluorophenyl)ethyl]-5-hydroxy-1H-pyrazol-3-yl]piperidine-1-carboxylate]",79.2,Not active,105,–,2220,79.2,100,–,–,4.09E- 03,0.00605,6.36E + 06 minutes,–,–
CC(C)(C)OC(=O)N1CCC(CCc2c(-c3ccc(C(F)(F)F)cc3)nn(-c3nc4ccccc4[nH]3)c2O)CC1 [Compound I-204],95.1,–,5.8,–,0.0229,95.1,5.8,–,0.0635,–,0.0229,–,≤ 1000,–
"CC(C)(C)OC(=O)N1CCCCC1Cc1nn(-c2nc3ccccc3[nH]2)c(O)c1CCc1ccc(F)cc1 (stereo not shown) [Compound I-207, tert-butyl 2-{[1-(1H-1,3-benzodiazol-2-yl)-4-[2-(4-fluorophenyl)ethyl]-5-hydroxy-1H-pyrazol-3-yl]methyl}piperidine-1-carboxylate]",99.3,–,-9.4,–,–,99.3,0,1.49,809,4.14E- 03,–,–,–,≥ 1000
"CC(C)(C)OC(=O)N1CCC(c2nn(-c3nc4ccc(Cl)cc4[nH]3)c(O)c2CCc2ccc(F)cc2)CC1 [Compound I-216, tert-butyl 4-[1-(5-chloro-1H-1,3-benzodiazol-2-yl)-4-[2-(4-fluorophenyl)ethyl]-5-hydroxy-1H-pyrazol-3-yl]piperidine-1-carboxylate]",87.1,Not active,176,–,0.00871,87.1,100,124,829,1.60E- 02,0.00871,4.71E + 05 minutes,–,–
